Assay [1] deals with EGFRWT (Homo sapiens, UniProt P00533). Description: In vitro enzymatic activity assay (Z'-LYTE), wild type EGFR. It counts as biochemical. Particulars: Z'-LYTE FRET peptide assay; read-out: EGFRWT kinase activity (IC50). The essentials:
(§1)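 Z'-LYTE FRET coupled-enzyme format: kinase phosphorylates FRET peptide substrate, then after one hour a site-specific protease cleaves non-phosphorylated peptide. After another hour, excitation at 400 nm and emission read at 445 and 520 nm.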

Assay [2] concerns the target T1, EGFR T790M kinase (Homo sapiens, UniProt P00533, T790M).
T1 construct: purchased invitrogen PV4803
Description: In vitro enzymatic activity assay (Z'-LYTE), EGFR T790M. It counts as biochemical. The note with it: Z'-LYTE FRET peptide assay; read-out: EGFRT790M kinase activity (IC50). The essentials:
as §1

Assay [3] deals with EGFRL858R (Homo sapiens, UniProt P00533, L858R). As to the kind of experiment: In vitro enzymatic activity assay (Z'-LYTE), EGFR L858R. The note with it: Z'-LYTE FRET peptide assay; read-out: EGFRL858R kinase activity (IC50). It counts as biochemical. The essentials: as §1
Assay [4] concerns the target EGFRL861Q (Homo sapiens, UniProt P00533, L861Q). Description: In vitro enzymatic activity assay (Z'-LYTE), EGFR L861Q. Particulars: Z'-LYTE FRET peptide assay; read-out: EGFRL861Q kinase activity (IC50). It counts as biochemical. An outline of the steps: as §1
The target in assay [5] is EGFRL858R + T790M (Homo sapiens, UniProt P00533, L858R/T790M). Description: In vitro enzymatic activity assay (Z'-LYTE), EGFR L858R + T790M. The note with it: Z'-LYTE FRET peptide assay; read-out: EGFRL858R + T790M kinase activity (IC50). It counts as biochemical. An outline of the steps:
as §1

Assay [6] relates to H1975 (lung cancer cells, EGFR L858R&T790M). Description: Cell proliferation by MTT, H1975. Format: cell-based. The note with it: Homo sapiens, NCI-H1975, read-out: H1975 50% inhibitory concentration (IC50), 72 h.
In assay [7] the test system is HCC827 (lung cancer cells, EGFR E746-A750 deletion). As to the kind of experiment: Cell proliferation by MTT, HCC827. Format: cell-based. The note with it: Homo sapiens, HCC827, read-out: HCC827 50% inhibitory concentration (IC50), 72 h.
The subject of assay [8] is A431 (Human epidermal carcinoma, EGFR high expression). Description: Cell proliferation by MTT, A431. It counts as cell-based. Particulars: A-431, read-out: A431 50% inhibitory concentration (IC50), 72 h.
The subject of assay [9] is NCI-H820 (lung cancer cells). As to the kind of experiment: Cell proliferation by MTT, NCI-H820. Format: cell-based. Particulars: NCI-H820, read-out: NCI-H820 50% inhibitory concentration (IC50), 72 h.
For assay [10], the system named is H1975 cell. Description: Effect on cell cycle by PI. It counts as cell-based. The note with it: PI staining, 24, 48 h; FIGS. 27, 28. As to the method: Detecting the effect of the compounds on cell cycle by PI: 8×10^5 cells/well, NCI-H820, A431, HCC827, EGFR E746-A750 deletion, H1975 were plated in 6-well plates, and 24 h later, treated with the compounds at various concentrations and a control (1% DMSO) for 24, 48 h. Cells were trypsined, collected and then centrifuged for 10 minutes. The cells were re-suspended in PBS to get a suspension and then the suspension (500 g) centrifuged for 10 min; this step was repeated twice: firstly 300 uL pre-cooled PBS was added and mixed, then 700 uL pre-cooled (i.e. −20° C.) anhydrous ethanol was added and mixed, placed in −20° C. for 24 h. The mixture was 5000 rpm centrifuged for 2 min, washed by PBS twice, resuspended with 200 uL PBS (it needs to ensure the cell concentration as about […]), added RNase to achieve the final concentration of 50 ug/mL, and […] at 37° C. for 30 min. The mixture was added PI achieve the final concentration of 10 ug/mL, dyed in dark for 30 min, and then detected within 1 h.

Assay [11] deals with H1975 cell. As to the kind of experiment: Effect on cell apoptosis by Annexin V. Format: cell-based. The note with it: PE-Annexin V, 24, 48 h; FIG. 29. As to the method:
Detecting the effect of the compounds on cell apoptosis by Annexin V: 8×10^5 cells/well, NCI-H820, A431, HCC827, EGFR E746-A750 deletion, H1975 were plated in 6-well plates, and 24 h later, treated with the compounds at various concentrations and a control (1% DMSO) for 24, 48 h. Growth medium was collected and cells were trypsined and collected correspondingly to the medium. Suspension (500 g) was centrifuged for 10 minutes. The cells were re-suspended in PBS to get a suspension and then the suspension (500 g) centrifuged for 10 min; this step was repeated twice. The cells were re-suspended in binding buffer, 5×10^5-1×10^6 cells/mL. PE-Annexin V (556421, BD Pharmingen) […] respectively. The cells were incubated for 15 min at RT in the dark. The samples were detected with FACS Calibur flow cytometer (Becton Dickinson).

In assay [12] the test system is EGFR phosphorylation in H1975 Cell. As to the kind of experiment: Western Blot, cell signaling pathway in H1975 cell. Format: cell-based. Particulars: FIG. 30. How it is done:
Conventional Western Blot (Immune blotting method) was used, wherein the method includes four steps: sample preparation, electrophoretic separation, film transfer of protein, and immuno hybridization and color display (protein detection). Sample preparation • 1. culturing cells or treating the cells with drugs; • 2. discarding mediums, washing the cells with 1×PBS twice to completely remove the mediums; • 3. adding 1×SDS sample buffer (6-well plate, 100 μl/w or 75 cm^2 plate, 500-1000 μl/bottle), scrapping the cells and transferring them to Ep tube; • 4. ultrasonic shearing DNA for 10-15 seconds to reduce the viscosity of the sample; • 5. boiling the sample for 5 minutes; • 6. centrifuging 12000 g sample for 5 minutes and taking the supernatant. […]
(In general: Immunoblotting shows a protein as a band on a membrane.)

Some results are limits rather than exact numbers.

T1 sequence (P00533 25-1210 T790M): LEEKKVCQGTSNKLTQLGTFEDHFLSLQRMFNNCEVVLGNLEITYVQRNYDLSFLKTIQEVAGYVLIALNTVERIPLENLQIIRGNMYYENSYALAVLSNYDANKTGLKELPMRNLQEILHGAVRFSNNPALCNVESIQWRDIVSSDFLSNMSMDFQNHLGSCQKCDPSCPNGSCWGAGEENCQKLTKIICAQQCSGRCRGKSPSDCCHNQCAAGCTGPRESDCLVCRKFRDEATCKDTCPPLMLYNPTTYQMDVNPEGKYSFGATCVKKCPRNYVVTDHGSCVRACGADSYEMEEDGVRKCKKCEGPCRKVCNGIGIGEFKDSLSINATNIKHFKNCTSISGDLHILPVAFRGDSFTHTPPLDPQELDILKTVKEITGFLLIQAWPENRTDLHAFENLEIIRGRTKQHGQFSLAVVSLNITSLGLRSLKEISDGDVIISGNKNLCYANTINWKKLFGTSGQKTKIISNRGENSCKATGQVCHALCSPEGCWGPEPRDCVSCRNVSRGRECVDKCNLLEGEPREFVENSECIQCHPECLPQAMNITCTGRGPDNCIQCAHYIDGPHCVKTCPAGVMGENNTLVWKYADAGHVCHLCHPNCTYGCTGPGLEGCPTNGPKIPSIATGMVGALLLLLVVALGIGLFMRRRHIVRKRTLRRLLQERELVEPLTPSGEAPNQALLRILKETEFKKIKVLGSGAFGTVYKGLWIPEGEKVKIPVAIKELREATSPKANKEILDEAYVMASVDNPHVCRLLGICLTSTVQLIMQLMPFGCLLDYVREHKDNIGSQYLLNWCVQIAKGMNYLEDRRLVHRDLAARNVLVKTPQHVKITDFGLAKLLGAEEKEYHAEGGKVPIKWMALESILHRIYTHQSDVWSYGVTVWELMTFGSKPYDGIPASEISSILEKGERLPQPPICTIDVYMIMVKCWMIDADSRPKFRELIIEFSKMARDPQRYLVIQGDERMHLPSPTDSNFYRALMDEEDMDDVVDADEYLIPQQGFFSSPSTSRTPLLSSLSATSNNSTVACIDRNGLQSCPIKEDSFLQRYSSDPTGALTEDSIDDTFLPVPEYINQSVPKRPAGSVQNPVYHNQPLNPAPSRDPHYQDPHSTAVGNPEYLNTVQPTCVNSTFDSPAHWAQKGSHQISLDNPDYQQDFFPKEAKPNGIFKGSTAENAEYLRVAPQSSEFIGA
EGFRWT, sequence (P00533 25-1210): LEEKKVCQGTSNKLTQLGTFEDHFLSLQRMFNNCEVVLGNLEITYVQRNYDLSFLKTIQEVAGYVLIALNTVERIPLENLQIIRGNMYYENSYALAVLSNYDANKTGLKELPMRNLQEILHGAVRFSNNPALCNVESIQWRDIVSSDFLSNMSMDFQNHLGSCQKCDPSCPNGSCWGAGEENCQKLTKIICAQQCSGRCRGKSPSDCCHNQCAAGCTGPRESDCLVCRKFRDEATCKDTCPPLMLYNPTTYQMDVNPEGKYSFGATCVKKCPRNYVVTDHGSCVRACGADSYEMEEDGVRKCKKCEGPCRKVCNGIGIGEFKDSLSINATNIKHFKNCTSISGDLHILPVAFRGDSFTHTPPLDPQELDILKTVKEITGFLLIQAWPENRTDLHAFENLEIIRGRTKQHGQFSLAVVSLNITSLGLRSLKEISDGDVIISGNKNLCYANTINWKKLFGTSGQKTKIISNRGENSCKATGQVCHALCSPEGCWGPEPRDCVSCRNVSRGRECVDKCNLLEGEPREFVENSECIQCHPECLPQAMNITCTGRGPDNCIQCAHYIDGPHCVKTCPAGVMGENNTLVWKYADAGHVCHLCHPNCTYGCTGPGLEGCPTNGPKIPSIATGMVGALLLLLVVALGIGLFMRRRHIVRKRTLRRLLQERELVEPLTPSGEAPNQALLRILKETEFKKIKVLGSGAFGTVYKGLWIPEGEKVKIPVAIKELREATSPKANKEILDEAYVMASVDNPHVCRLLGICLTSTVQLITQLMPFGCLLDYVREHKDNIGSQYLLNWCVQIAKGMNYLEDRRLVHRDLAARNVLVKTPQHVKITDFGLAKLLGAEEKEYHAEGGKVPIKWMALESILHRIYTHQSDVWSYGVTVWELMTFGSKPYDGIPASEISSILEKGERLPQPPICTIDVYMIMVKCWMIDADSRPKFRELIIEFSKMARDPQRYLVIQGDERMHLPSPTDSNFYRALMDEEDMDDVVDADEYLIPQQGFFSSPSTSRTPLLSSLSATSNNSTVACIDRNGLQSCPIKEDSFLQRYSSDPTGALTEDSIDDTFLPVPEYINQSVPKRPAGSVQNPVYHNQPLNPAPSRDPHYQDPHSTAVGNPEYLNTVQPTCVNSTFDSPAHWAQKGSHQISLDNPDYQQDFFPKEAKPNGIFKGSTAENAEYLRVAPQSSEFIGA
EGFRL861Q, sequence (P00533 25-1210 L861Q): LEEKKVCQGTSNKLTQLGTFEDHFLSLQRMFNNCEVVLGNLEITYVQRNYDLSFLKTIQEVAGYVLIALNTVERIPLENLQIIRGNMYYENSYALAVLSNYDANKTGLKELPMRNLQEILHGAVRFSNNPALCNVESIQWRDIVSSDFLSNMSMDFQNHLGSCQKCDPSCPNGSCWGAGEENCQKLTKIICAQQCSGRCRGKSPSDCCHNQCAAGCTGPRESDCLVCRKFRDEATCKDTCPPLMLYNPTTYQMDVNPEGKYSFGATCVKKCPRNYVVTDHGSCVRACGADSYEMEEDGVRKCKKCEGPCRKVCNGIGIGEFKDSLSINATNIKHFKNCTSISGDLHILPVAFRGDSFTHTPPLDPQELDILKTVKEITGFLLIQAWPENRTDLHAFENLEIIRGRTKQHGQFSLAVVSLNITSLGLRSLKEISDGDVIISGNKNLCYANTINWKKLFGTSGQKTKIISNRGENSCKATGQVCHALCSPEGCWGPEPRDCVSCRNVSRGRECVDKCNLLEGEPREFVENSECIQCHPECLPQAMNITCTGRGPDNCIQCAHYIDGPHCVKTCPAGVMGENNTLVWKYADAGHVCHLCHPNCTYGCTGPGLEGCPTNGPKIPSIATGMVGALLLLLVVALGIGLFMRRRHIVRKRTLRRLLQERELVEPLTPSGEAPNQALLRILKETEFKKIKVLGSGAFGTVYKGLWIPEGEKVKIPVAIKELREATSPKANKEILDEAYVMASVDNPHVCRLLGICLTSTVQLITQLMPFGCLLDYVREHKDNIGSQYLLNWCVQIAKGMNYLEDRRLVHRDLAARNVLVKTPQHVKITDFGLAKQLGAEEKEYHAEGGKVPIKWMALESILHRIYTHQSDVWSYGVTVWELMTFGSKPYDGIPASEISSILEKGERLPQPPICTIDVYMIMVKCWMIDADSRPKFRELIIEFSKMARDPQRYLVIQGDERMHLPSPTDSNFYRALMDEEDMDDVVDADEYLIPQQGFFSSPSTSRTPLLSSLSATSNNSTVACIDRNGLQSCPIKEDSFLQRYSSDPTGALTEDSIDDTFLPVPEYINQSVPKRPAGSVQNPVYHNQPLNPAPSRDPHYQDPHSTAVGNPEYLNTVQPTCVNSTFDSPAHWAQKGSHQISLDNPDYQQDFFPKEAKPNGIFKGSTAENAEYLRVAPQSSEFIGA
EGFRL858R + T790M, sequence (P00533 25-1210 T790M/L858R): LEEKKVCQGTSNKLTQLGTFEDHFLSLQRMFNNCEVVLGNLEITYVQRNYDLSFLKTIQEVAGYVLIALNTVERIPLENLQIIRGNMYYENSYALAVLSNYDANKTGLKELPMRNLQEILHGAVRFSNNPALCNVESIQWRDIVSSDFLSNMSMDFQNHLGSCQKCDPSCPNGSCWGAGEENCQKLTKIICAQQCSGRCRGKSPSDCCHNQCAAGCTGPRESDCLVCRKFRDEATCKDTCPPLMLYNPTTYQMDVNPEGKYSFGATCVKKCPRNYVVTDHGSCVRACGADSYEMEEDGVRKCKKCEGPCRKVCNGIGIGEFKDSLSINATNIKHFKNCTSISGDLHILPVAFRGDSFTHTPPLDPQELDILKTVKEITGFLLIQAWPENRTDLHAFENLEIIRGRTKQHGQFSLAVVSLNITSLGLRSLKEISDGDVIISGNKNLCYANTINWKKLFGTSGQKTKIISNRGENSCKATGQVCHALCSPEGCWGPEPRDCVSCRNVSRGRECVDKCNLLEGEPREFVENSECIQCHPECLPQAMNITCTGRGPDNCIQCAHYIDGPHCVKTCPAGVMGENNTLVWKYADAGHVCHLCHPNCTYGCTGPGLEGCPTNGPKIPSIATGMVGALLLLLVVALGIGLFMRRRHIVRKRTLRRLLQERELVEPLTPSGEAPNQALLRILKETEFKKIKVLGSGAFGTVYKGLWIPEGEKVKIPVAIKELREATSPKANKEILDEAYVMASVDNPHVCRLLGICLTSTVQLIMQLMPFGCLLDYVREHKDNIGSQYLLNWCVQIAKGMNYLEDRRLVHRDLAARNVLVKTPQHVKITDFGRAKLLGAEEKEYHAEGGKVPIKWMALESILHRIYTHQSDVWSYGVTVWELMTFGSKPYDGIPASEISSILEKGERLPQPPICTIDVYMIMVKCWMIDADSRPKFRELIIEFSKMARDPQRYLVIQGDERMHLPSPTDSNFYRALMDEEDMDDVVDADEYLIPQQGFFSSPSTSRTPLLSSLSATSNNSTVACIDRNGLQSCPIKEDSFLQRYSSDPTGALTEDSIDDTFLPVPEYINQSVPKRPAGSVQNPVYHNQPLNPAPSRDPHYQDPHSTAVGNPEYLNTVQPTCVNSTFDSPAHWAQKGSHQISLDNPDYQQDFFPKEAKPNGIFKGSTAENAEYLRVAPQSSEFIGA

With `C=CC(=O)Nc1cccc(N2C(=O)N(C)Cc3cnc(Nc4ccc(N5CCN(C)CC5)cc4OC)nc32)c1` [C-EGF06, N-(3-(7-(2-methoxy-4-(4-methylpiperazin-1-yl)phenylamino)-3-methyl-2-oxo-3,4-dihydropyrimido[4,5-d]pyrimidin-1(2H)-yl)phenyl)acrylamide], the IC50 in [1] was not above 10 nM; in [2], not above 10 nM; in assay [3] it was not above 10 nM; in [4] it was not above 10 nM; in [5], not above 10 nM; in [6], 85 nM. Further, the IC50 was 52 nM in [7], 2930 nM in assay [8] and more than 100000 nM in assay [9]. Moreover, in assay [10], the cell cycle arrest result is “significantly induce”. Moreover, the cell apoptosis result in [11] is reported as “significantly induce”. Moreover, the EGFR phosphorylation arrest result in [12] is “significantly induce EGFR phosphorylation arrest”. In assay [12], the downstream pathway phosphorylation result is on record as “further block”.

For the origin of these results see patent US20140296216A1, “PYRIMIDO[4,5-D]PYRIMIDINYL COMPOUNDS, PHARMACEUTICAL COMPOSITIONS AND USES THEREOF” (GUANGZHOU INSTITUTE OF BIOMEDICINE AND HEALTH, CHINESE …, priority 2011, published 2014).
